Source: patent US11578069B2, “Compounds for inhibition of α4 β7 integrin” (Gilead Sciences, Inc., priority 2019, dated 2023)

Tests used:
α4β7 integrin = biological target: T1, α4β7 integrin (Homo sapiens, UniProt P13612+P26010); test: α4β7 Integrin Cell Capture Assay; format: cell-based; conditions: capture of α4β7 integrin expressing RPM18866 cells on MadCAM-1 extracellular domain-coated plate
T1 construct: monitoring the capture of α4β7 integrin expressing cells; endogenous in cells; host or cells: RPMI8866
T1 sequence (P13612 34-1032): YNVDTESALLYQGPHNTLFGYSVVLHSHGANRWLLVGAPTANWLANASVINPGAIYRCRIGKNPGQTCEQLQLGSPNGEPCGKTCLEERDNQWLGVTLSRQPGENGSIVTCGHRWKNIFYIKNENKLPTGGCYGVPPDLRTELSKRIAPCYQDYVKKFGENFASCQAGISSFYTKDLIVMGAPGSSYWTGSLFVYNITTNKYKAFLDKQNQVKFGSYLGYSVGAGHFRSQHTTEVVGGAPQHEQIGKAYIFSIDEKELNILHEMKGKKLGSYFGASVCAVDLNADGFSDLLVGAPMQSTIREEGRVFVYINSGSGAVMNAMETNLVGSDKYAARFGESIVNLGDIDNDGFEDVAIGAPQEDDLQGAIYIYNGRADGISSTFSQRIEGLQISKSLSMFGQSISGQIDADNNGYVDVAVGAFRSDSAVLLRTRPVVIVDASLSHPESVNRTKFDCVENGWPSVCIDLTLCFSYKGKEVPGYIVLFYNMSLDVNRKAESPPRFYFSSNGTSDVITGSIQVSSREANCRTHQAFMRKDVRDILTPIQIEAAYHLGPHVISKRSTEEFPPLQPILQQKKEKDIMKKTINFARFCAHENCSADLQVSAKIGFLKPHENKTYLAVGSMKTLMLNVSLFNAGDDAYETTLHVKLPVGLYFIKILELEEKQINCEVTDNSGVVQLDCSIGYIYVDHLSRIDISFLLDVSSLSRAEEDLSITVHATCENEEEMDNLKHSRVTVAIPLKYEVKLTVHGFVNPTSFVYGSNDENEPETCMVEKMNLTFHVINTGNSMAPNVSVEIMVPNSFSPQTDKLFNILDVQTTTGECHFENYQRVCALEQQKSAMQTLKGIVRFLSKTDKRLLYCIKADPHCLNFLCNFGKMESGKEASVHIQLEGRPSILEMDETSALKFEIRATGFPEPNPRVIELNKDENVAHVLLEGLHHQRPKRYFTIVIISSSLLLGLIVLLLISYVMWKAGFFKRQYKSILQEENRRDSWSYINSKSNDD
T1 sequence (P26010 20-798): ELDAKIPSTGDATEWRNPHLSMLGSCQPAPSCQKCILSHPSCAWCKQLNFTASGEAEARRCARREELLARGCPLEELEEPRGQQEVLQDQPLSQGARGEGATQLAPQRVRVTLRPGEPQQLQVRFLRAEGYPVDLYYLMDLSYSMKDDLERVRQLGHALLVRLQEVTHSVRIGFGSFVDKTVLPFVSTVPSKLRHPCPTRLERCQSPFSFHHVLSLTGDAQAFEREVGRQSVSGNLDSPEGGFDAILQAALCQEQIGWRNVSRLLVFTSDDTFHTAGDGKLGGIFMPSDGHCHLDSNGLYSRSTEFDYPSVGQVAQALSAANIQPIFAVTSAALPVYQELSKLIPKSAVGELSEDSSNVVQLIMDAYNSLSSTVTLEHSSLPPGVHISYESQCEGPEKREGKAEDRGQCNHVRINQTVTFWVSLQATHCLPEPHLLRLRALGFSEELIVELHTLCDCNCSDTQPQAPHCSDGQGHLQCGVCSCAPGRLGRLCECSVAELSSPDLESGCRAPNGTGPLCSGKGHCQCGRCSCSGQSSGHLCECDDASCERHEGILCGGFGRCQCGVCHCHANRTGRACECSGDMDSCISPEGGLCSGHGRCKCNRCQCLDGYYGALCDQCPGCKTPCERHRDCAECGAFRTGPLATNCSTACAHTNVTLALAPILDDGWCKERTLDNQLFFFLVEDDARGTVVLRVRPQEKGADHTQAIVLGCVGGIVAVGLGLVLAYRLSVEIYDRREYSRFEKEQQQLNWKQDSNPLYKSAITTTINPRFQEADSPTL
Experimental: The potency of inhibitors in preventing α4β7 integrin interaction with MadCAM-1 was measured by monitoring the capture of α4β7 integrin expressing cells on a recombinant MadCAM-1 extracellular domain-coated plate.
384-well plates (Corning 3702) were coated with MadCAM-1 extracellular domain by dispensing 20 μL of MAdCAM-1 at 1.0 μg/mL per well and incubating overnight at 4° C. The plates were then washed with PBS and blocked with 3% BSA for 2 hours before being washed again.
(§1) RPM18866 cells were spun down and re-suspended in assay medium (DMEM+0.5% FBS+0.5 mM MnCl2) at a density of 0.5×10^6 cells/mL. The cells were then dispensed (60 μL/well) to a 384-well plate (Greiner 781280) that was previously spotted with 60 nL of test compound per well. The plates were incubated at 37° C. for 1 hour. 50 μL of cells were transferred to the blocked, MadCAM-1-coated plates and incubated for 30 minutes at 37° C. 10 μL of 12% glutaraldehyde containing Hoechst 33342 (0.06 mg/mL) was added to the cells (2% glutaraldehyde and 0.01 mg/mL final concentrations). The plates were incubated for 90 minutes at room temperature. The plates were then washed 3 times with 70 μL of PBS per well and imaged on a Cellomics ArrayScan instrument. The cells that were bound to the plate were counted and plotted against the compound concentration to determine the EC50 of the test compounds.

α4β1 integrin = biological target: T2, α4β1 integrin (Homo sapiens, UniProt P05556+P13612); test: α4β1 Cell Capture Assay; format: cell-based; conditions: capture of α4β1 expressing Jurkat cells on VCAM-1 extracellular domain-coated plate
T2 construct: monitoring the capture of α4β1 expressing cells; endogenous in cells; host or cells: Jurkat
Experimental: The potency of inhibitors in preventing α4β1 integrin interaction with VCAM-1 was measured by monitoring the capture of α4β1 expressing cells to a recombinant VCAM-1 extracellular domain-coated plate.
384-well plates (Corning 3702) were coated with VCAM-1 extracellular domain by dispensing 20 μL of VCAM-1 at 0.5 μg/ml per well and incubating overnight at 4° C. The plates were then washed with PBS and blocked with 3% BSA for 2 hours before being washed again.
as §1, with “Jurkat cells” for “RPM18866 cells”, “0.5×10^6 cells/ml.” for “0.5×10^6 cells/mL.”, “blocked, VCAM-1-coated” for “blocked, MadCAM-1-coated”, “10 μl” for “10 μL”, “0.01 mg/ml Hoechst 33342” for “0.01 mg/mL”

T2 sequence (P05556 21-798, one chain of several): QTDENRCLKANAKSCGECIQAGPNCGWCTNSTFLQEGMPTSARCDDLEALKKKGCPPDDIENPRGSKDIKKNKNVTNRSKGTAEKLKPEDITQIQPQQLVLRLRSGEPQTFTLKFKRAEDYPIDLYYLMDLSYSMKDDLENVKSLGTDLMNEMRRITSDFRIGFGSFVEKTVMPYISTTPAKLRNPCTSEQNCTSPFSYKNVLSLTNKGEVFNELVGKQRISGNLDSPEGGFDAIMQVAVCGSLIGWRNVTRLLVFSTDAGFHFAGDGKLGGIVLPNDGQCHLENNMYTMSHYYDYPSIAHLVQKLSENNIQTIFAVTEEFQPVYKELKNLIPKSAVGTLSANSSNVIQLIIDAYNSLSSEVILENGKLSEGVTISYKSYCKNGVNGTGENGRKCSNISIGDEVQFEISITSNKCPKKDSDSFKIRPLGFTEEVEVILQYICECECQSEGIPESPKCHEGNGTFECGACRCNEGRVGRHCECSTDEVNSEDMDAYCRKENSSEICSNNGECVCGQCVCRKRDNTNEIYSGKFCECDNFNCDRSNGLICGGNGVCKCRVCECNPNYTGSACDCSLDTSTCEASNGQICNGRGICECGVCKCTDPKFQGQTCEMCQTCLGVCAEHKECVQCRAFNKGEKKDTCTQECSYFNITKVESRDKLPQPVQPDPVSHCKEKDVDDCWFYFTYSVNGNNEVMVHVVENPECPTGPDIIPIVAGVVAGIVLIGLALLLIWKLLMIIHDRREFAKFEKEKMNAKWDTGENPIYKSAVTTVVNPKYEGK

Row | EC50 (α4β7 integrin; Table 1) [nM] | EC50 (α4β1 integrin; Table 1) [nM] | EC50 (α4β7 integrin; Table 2) [nM] | EC50 (α4β1 integrin; Table 2) [nM] | SMILES
1 | 1.6 | 117 |  |  | CC[C@@H](Nc1cc(F)c(C(=O)N[C@@H](Cc2ccc(-n3c(=O)c4ccncc4n(C)c3=O)nc2)C(=O)O)c(F)c1)C(F)(F)F [Example 9, (S)-2-(2,6-difluoro-4-(((R)-1,1,1-trifluorobutan-2-yl)amino)benzamido)-3-(6-(1-methyl-2,4-dioxo-1,4-dihydropyrido[3,4-d]pyrimidin-3(2H)-yl)pyridin-3-yl)propanoic acid]
2 |  |  | 0.2 | 18.6 | COc1cc(C[C@H](NC(=O)c2c(F)cc(N3CCOC[C@@H]3C(F)(F)F)cc2F)C(=O)O)ccc1-n1c(=O)c2ccncc2n(C)c1=O [Example 53]
3 | 0.3 | 9.9 |  |  | Cc1cc(C(F)(F)F)c(-c2ccc(C[C@H](NC(=O)c3c(F)cc(N4CCOC[C@@H]4C(F)(F)F)cc3F)C(=O)O)cc2F)c(=O)n1C [Example 6, (S)-2-(2,6-difluoro-4-((R)-3-(trifluoromethyl)morpholino)benzamido)-3-(4-(1,6-dimethyl-2-oxo-4-(trifluoromethyl)-1,2-dihydropyridin-3-yl)-3-fluorophenyl)propanoic acid]
4 |  |  | 0.7 | 9.7 | Cc1cc(N2CCOC[C@@H]2C(F)(F)F)cc(F)c1C(=O)N[C@@H](Cc1ccc(-n2c(=O)c3ccncc3n(C)c2=O)c(C(F)(F)F)c1)C(=O)O (atropisomer, axis not shown) [Example 90]
5 |  |  | 0.4 | 25.8 | Cc1cc(N2CCOC[C@@H]2C(F)(F)F)cc(F)c1C(=O)N[C@@H](Cc1ccc(-n2c(=O)c3ccncc3n(C)c2=O)c(OC(F)(F)F)c1)C(=O)O (atropisomer, axis not shown) [Example 93]
6 |  |  | 1.2 | 14.4 | CC[C@@H](Nc1cc(F)c(C(=O)N[C@@H](Cc2ccc(-c3c(C)n(C)c(=O)n(C)c3=O)cc2)C(=O)O)c(F)c1)C(F)(F)F [Example 32]
7 |  |  | 0.6 | 29 | Cc1cc(C[C@H](NC(=O)c2c(F)cc(N3CCOC[C@@H]3C(F)(F)F)cc2F)C(=O)O)ccc1-c1c(C(F)(F)F)cc(C)n(C)c1=O [Example 29]
8 |  |  | 3.9 | 17.9 | Cc1cc(N2CCOC[C@H]2CC(F)F)cc(F)c1C(=O)N[C@@H](Cc1ccc(-n2c(=O)c3ccncc3n(C)c2=O)nc1)C(=O)O [Example 85]
9 |  |  | 15.9 | 661 | CC[C@@H](Nc1cc(F)c(C(=O)N[C@@H](Cc2ccc(-n3c(=O)cc(C)n(C)c3=O)nc2)C(=O)O)c(F)c1)C(F)(F)F [Example 43]
10 |  |  | 0.06 | 2.1 | Cc1cc(N2CCOC[C@@H]2C(F)(F)F)cc(F)c1C(=O)N[C@@H](Cc1cc(F)c(-n2c(=O)c3ccncc3n(C)c2=O)c(F)c1)C(=O)O [Example 80]
11 |  |  | 0.16 | 3.4 | COc1cnc2c(=O)n(-c3ccc(C[C@H](NC(=O)c4c(C)cc(N5CCOC[C@@H]5C(F)(F)F)cc4F)C(=O)O)cn3)c(=O)n(C)c2c1 [Example 78]
12 |  |  | 0.3 | 5.8 | Cc1cc(C[C@H](NC(=O)c2c(C)cc(N3CCOC[C@@H]3C(F)(F)F)cc2F)C(=O)O)ccc1-c1nc(C)c(C)n(C)c1=O [Example 42]
13 | 0.1 | 3.4 |  |  | Cc1cc(N2CCOC[C@@H]2C(F)(F)F)cc(F)c1C(=O)N[C@@H](Cc1ccc(-n2c(=O)c3ccncc3n(C)c2=O)cc1)C(=O)O [Example 25, (S)-2-(2-fluoro-6-methyl-4-((R)-3-(trifluoromethyl)morpholino)benzamido)-3-(4-(1-methyl-2,4-dioxo-1,4-dihydropyrido[3,4-d]pyrimidin-3(2H)-yl)phenyl)propanoic acid]
14 | 0.2 | 2.8 |  |  | Cc1cc(N2CCOC[C@@H]2CC(F)F)cc(F)c1C(=O)N[C@@H](Cc1ccc(-n2c(=O)c3c(n(C)c2=O)CCOC3)cc1)C(=O)O [Example 57, (S)-2-(4-((S)-3-(2,2-difluoroethyl)morpholino)-2-fluoro-6-methylbenzamido)-3-(4-(1-methyl-2,4-dioxo-1,5,7,8-tetrahydro-2H-pyrano[4,3-d]pyrimidin-3(4H)-yl)phenyl)propanoic acid]
15 | 0.8 | 38.9 |  |  | Cn1c(=O)n(-c2ccc(C[C@H](NC(=O)c3c(F)cc(N4CCOC[C@@H]4C(F)(F)F)cc3F)C(=O)O)cn2)c(=O)c2ccncc21 [Example 13, (S)-2-(2,6-difluoro-4-((R)-3-(trifluoromethyl)morpholino)benzamido)-3-(6-(1-methyl-2,4-dioxo-1,4-dihydropyrido[3,4-d]pyrimidin-3(2H)-yl)pyridin-3-yl)propanoic acid]
16 | 13.6 | 905 |  |  | CC[C@@H](Nc1cc(F)c(C(=O)N[C@@H](Cc2ccc(-c3c(C(F)(F)F)cc(=O)n(C)c3C)cc2)C(=O)O)c(F)c1)C(F)(F)F [Example 2, (S)-2-(2,6-difluoro-4-(((R)-1,1,1-trifluorobutan-2-yl)amino)benzamido)-3-(4-(1,2-dimethyl-6-oxo-4-(trifluoromethyl)-1,6-dihydropyridin-3-yl)phenyl)propanoic acid]
17 |  |  | 0.05 | 1.7 | Cc1cc(N2CCOC[C@@H]2C(F)(F)F)cc(F)c1C(=O)N[C@@H](Cc1ccc(-n2c(=O)c3ccncc3n(C)c2=O)c(F)c1)C(=O)O [Example 84]
